# Results taken from patent US20090317419A1, “Tetramers” (Duke University, priority 2008, published 2009).
# Where two headings read alike, the source gives them in different places. Marks after values point to notes of the source that are not given here. Ends that are not written are not given here. * marks the point of attachment. Biotin = O=C1N[C@H]2[C@H](CS[C@H]2CCCCC(=O)*)N1
# Experiments:
# [1] = tested on: B Cell Receptor of purified naïve BALB/c splenic B cells; details: 10 μg/ml anti-Ig, 37° C., by 15 min
# Protocol: B cell purification, BCR internalization assay, and microscopy of BCR cap formation. Splenic B cells were purified by negative depletion of CD43-expressing non B cells with anti-mouse CD43 MACS beads (Miltenyi Biotechnology) resulting in fractions >90% B cells.
# For analysis of BCR internalization by flow cytometry, purified B cells were pre-incubated on ice for 30 min with either a 95:5 unlabeled/R-PE-labeled mixture of 10 μg/ml goat anti-mouse-IgM+IgG (H+L) F(ab)2 fragments (Jackson ImmunoResearch laboratories). To remove excess reagent, cells were then washed, resuspended in DMEM 10% FCS, and stimulated by warming to 37° C. (or at 4° C. as a control) for the indicated time points. […] Percent internalization for tetramers was calculated on gp41 MPER+B220+ subsets (the gp41 MPER gate set based on the FMO control) by the formula [% gp41 MPER (To)−% gp41 MPER (Tn)]/% Sp62 (To)×100. In other experiments, cells were pre-incubated with either 5 mg/ml mannan, 125 mM α-methyl-mannopyranoside (Sigma-Aldrich), or 10 μg/ml unlabeled goat anti-mouse-IgM+IgG (H+L) F(ab)2 fragments, prior to staining with APC-labeled tetramers.
# B220+ BALB/c splenocytes = details: pre-incubation with 10-fold molar excess unlabeled tetramer, 30 min on ice
# Protocol: (§1) Staining was conducted at 4° C. in several sequential steps in FACS staining buffer (1×PBS with 2% FCS, 0.1% NaN3), washing twice between steps. First, cells were incubated with v-amine live/dead dye for 15 min. Next, cells were stained with APC-labeled tetramers for 30 min. Where applicable, this was preceded by addition of cold tetramer at 10 fold molar excess for 1 h. Finally, cells were stained with Fc block for 30 min, followed by incubation with combinations of primary antibody cocktails for 30 min, and secondary staining with SA-Texas Red for 30 min.
# [2] = tested on: total naïve splenic C57BL/6 B cells; details: C57BL/6, APC-labeled tetramer
# Protocol: (§2) Cell isolation, serum collection, and PBMC isolations. Heparinized or non-heparanized blood was collected sub-mandibularly 10 days after immunizations. For preparation of peripheral blood lymphocytes for B cell tetramer analysis, PBMC were isolated from blood collected in heparinized tubes (0.2 ml) using Lympholyte M (Cederlane). For Luminex and ELISA assays, sera was isolated from non-heparanized blood and stored at −20° C. until use. Spleen, bone marrow (BM), and peritoneal cavity (PerC) cells were also collected. For most immunizations, tissues were harvested after the 4th boost, except for kinetic studies, in which tissues from mice were harvested after 1, 3 or 7 days after a single immunization. For BM preparations, femora and tibiae were removed, aspirated with tissue medium using 23 gauge needles, filtered with 70 μm cell strainers (BD labware), and RBC-depleted using Tris-buffered ammonium chloride lysis. For splenocyte preparation, spleens were harvested and dissociated into single-cell suspensions either by passage through 70 μm cell strainers in tissue medium or by using frosted glass slides, and blood erythrocytes were depleted with ammonium chloride lysis. For isolation of peritoneal cells, peritoneal cavities of sacrificed mice were lavaged by injection with 10 ml of PBS, followed by gentle massage of the abdomen, and withdrawal of the peritoneal exudates. BM, splenic, and peritoneal single cell suspensions were centrifuged at 1500 rpm for 5 min and resuspended in 5, 10, and 1 ml of tissue media, respectively, for cell counts and immunofluorescence staining. Cell counts were performed in duplicate on a Coulter ZI Dual Threshold Cell Counter (Coulter).
# (§3) Antibodies and flow cytometry. Immunofluorescent staining of single cell suspensions (≧2×10^6) was conducted using pre-mixed combinations of fluorochrome-labeled antibodies and APC-conjugated B cell tetramers at empirically-determined optimal concentrations. All antibodies were from BD unless otherwise stated. […] Other reagents included biotinylated antibodies against dump channel markers: Thy1 (Ox7; Abcam), F4/80 (BM8; Abcam), CD11c (clone HL3), Gr-1 (clone RB6-8C5), TER-119, and NK-1.1 (clone PK136), secondary staining SA-Texas Red conjugate; v-amine live/dead violet dye (Molecular Probes), and Fc block (anti-CD16/32; clone 2.4G2).
# as §1
# (§4) Data were acquired using an LSRII flow cytometer and Cell Quest software (BD Immunocytometry systems). A minimum of 250000 events were acquired per sample. FACS Analysis was performed using FlowJo software (Tree Star). For analysis, single cells were positively gated based on their forward scatter height vs. forward scatter area and side scatter height vs. side scatter area profiles, lymphocytes were then positively gated based on their forward and side scatter profile (live lymphocyte gate), residual dead cells were excluded with negative gating on v-amine live/dead dye, and all irrelevant non-B cells were excluded with negative gating on dump markers Thy1, F4/80, CD11c, Gr-1, TER-119, and NK-1.1.
# [3] = tested on: total naïve splenic BALB/c B cells; details: APC-labeled tetramer
# Protocol: as §2, §3, §1, §4
# [4] = tested on: B cell subsets from naive C57BL/6 mice
# Protocol: as §2, §3, §1, §4
# To examine if gp41 2F5 MPER epitope reactivity across B cell subsets mapped similarly on the IgH^b allotype, reactivity to gp41 2F5 MPER tetramers was measured by measuring the percentage of APC-labeled gp41 2F5 MPER tetramer-reactive cells in C57BL/6 bone marrow, splenic, and peritoneal B cell subsets (Table 10).
# [5] = tested on: mAb 13H11 (non-neutralizing anti-gp41 MPER); details: SPR, mAb 13H11 captured
# Protocol: (§5) Surface Plasmon Resonance (SPR) measurements of tetramer binding to peptide epitopes. Tetramer binding assays were carried out on a BIAcore 3000 (BIAcore/GE Healthcare, Piscataway, N.J.) instrument using mAbs against each specific B cell epitope.
# (§6) Each mAb (about 1000 RU) was first captured on anti-human Fc mAb (Pierce, Rockford, Ill.) immobilized on a CM5 sensor chip. Approximately 3000 RU of anti-human Fc mAb was covalently coupled to each flow cell of the sensor chip as described before (Alam et al, Journal of Immunology 178:4424-4435 (2007)). Each B cell tetramer was injected over its epitope specific mAb or a control surface immobilized with irrelevant mAb. For each tetramer binding curve, non-specific binding signals obtained from the control surface were subtracted. The binding assay was monitored at 25° C. and using PBS, pH 7.4, as the running buffer. The BIAevaluation 3.0 software (BIAcore/GE Healthcare, Piscataway, N.J.) was used for SPR binding data analyses.
# [6] = tested on: mAb 2F5 (neutralizing anti-gp41 MPER); details: SPR, mAb 2F5 captured
# Protocol: as §5, §6
# [7] = tested on: naïve splenic B cells, C57BL/6 congenic strain bearing the IgH^a allotype
# Protocol: (§7) Mice. Female C57BL/6, BALB/c, B6Igh^a, and CB17 (BALBc Igh^b) inbred mouse strains (8-12 weeks of age) were purchased from Charles River Laboratories. All mice were housed in the Duke University Animal Facility in a pathogen-free environment with 12 hour light/dark cycles at 20-25° C. under AALAC guidelines and in accordance with all Institutional Animal Care and Use Committee and Duke University Institutional Biosafety Committee-approved animal protocols.
# as §3
# (§8) Staining was conducted at 4° C. in several sequential steps in FACS staining buffer (1×PBS with 2% FCS, 0.1% NaN3), washing twice between steps. First, cells were incubated with v-amine live/dead dye for 15 min. Next, cells were stained with APC-labeled tetramers for 30 min. […]
# [8] = tested on: naïve splenic B cells, BALB/c congenic strain bearing the IgH^b allotype
# Protocol: as §7, §3, §8
substance,measurement,setting,value
Biotin-GGGQQEKNEQELLELDKWASLWN [gp41 MPER tetramer],tetramer downmodulation,[1],> 80%
same,inhibition of binding of APC-labeled gp41 MPER-tetramer,B220+ BALB/c splenocytes,> 90%
same,fraction of total naïve splenic B cell repertoire binding tetramer,[2],< 0.3%
same,fraction of total naïve splenic B cell repertoire binding tetramer,[3],> 5%
same,% of subset binding tetramer ± SEM,"[4]; C57BL/6, Bone marrow, Immature",0.30 ± 0.04%
same,% of subset binding tetramer ± SEM,"[4]; C57BL/6, Bone marrow, MF",0.15 ± 0.06%
same,% of subset binding tetramer ± SEM,"[4]; C57BL/6, Bone marrow, Pro/pre",0.05 ± 0.01%
same,% of subset binding tetramer ± SEM,"[4]; C57BL/6, Bone marrow, T1",0.62 ± 0.10^d %
same,% of subset binding tetramer ± SEM,"[4]; C57BL/6, Bone marrow, T2",0.54 ± 0.09^d %
same,% of subset binding tetramer ± SEM,"[4]; C57BL/6, Peritoneum, B1a",0.52 ± 0.08%
same,% of subset binding tetramer ± SEM,"[4]; C57BL/6, Peritoneum, B1b",0.50 ± 0.13%
same,% of subset binding tetramer ± SEM,"[4]; C57BL/6, Peritoneum, B2",0.32 ± 0.09%
same,% of subset binding tetramer ± SEM,"[4]; C57BL/6, Spleen, MF",0.16 ± 0.02%
same,% of subset binding tetramer ± SEM,"[4]; C57BL/6, Spleen, MZ",0.25 ± 0.04%
same,% of subset binding tetramer ± SEM,"[4]; C57BL/6, Spleen, T1",0.24 ± 0.06%
same,% of subset binding tetramer ± SEM,"[4]; C57BL/6, Spleen, T2",0.21 ± 0.07%
same,koff,[5],8.1 s^−1 × 10^−3
same,kon,[5],206 M^−1s^−1 × 10^3
same,koff,[6],0.37 s^−1 × 10^−3
same,kon,[6],174 M^−1s^−1 × 10^3
same,tetramer binding to splenic B cells,[7],restores gp41 2F5 MPER binding
same,tetramer binding to splenic B cells,[8],completely loses gp41 2F5 MPER binding
